According to patent publication US20200270232A1, “INHIBITORS OF INTEGRATED STRESS RESPONSE PATHWAY” (Praxis Biotech LLC, priority 2019, published 2020):

How the values were obtained:
ATF4 = ATF4 expression inhibition assay (ATF4 luciferase reporter); format: cell-based; conditions: Homo sapiens, HEK-293T; HEK293T cells carrying the ATF4 luciferase reporter, 100 nM thapsigargin (Tg), 3 hours; read-out: ATF4 inhbition IC50
Method: The ATF4 reporter was prepared by fusing the human full length 5′UTR of ATF4 (NCBI Accession No. BC022088.2) upstream of the firefly luciferase coding sequence lacking the initiator methionine. The fused sequence was cloned into pLenti-EF1a-C-Myc-DDK-IRES-Puro cloning vector (Origen # PS 100085) using standard methods. Virus production was carried out by using Lenti-X™ Packaging Single Shots Protocol (Clonetech #631276). Viral particles were used to transduce HEK293T cells (ATCC # CRL-3216, ATCC Manassas, Va.), which were subsequently selected with puromycin to generate stable cell line. Cells were maintained at 37° C. and 5% CO2 in DMEM-F12 (Hyclone # SH30023.02) supplemented with 10% heat-inactivated fetal bovine serum (Gibco #16000-044), 2 mM L-glutamine (Gibco #25030-081), 100 U/ml penicillin, and 100 μg/ml streptomycin (Gibco #15140-122).
HEK293T cells carrying the ATF4 luciferase reporter were plated on 96-well plates (Nunc) at 10,000 cells per well. Cells were treated two days after seeding with 100 nM thapsigargin (Tg) (Sigma-Aldrich # T9033) in the presence of different concentrations of selected compounds ranging from 1 nM to 10 μM. Cells without treatment or cells treated with Tg alone were used as controls. Assay plates containing cells were incubated for 3 hours at 37° C.
Luciferase reactions were performed using Luciferase Assay System (Promega # E1501) as specified by the manufacturer. Luminescence was read with an integration time of 1 s and a gain of 110 using a Cytation-5 multi-mode microplate reader (BioTek). Relative luminescence units were normalized to Tg treatment (0% inhibition) and untreated cells (100% inhibition) and the percentage of ATF4 inhibition was calculated.
Accordingly, inhibition of ATF4 expression as a result of the test compound indicates suppression of the ISR pathway.

[1] = tested on: Chinese hamster ovary (CHO) cells; test: Protein translation assay (puromycin labelling, western blot); format: cell-based; conditions: 2 hours, media alone = 100%; for activity at 1 µM: Cricetulus griseus, unstressed CHO cells (without Tg), 1 μM test compound, read-out: % Protein synthesis relative to untreated (1 μM test compound); for % Recovery of protein synthesis (1 μM test compound): stressed CHO cells, 300 nM Tg, Tg alone = 0%
Method: Chinese hamster ovary (CHO) cells were maintained at 37° C. and 5% C02 in Dulbecco's Modified Eagle's Media (DMEM) supplemented with 10% fetal bovine serum, 2 mM L-glutamine, 100 U/ml penicillin, and 100 μg/ml streptomycin. After reaching 80% of confluence, cells were detached and seeded on 6 well plates in complete media, allowed to recover overnight and treated for 2 hours with 1 μM of the test compound (to assess protein synthesis levels in unstressed condition), or for 2 hours with 300 nM Tg in the presence of 1 μM of the test compound (to assess the recovery of protein synthesis in a stressed condition). Cells with Tg alone were used as controls.
After the 2 hours treatments, media were replaced by adding 10 μg/ml puromycin (Sigma Aldrich # P8833) in complete media for 30 min. Media were removed and cells were lysed with SDS-PAGE lysis buffer. Lysates were transferred to 1.5 ml tubes and sonicated for 3 min and total protein amount were quantified using BCA Protein Assay Kit (Pierce). Equal amount of protein (30 μg) was loaded on SDS-PAGE gels. Proteins were transferred onto 0.2 μm PVDF membranes (BioRad) and probed with primary antibodies diluted in Tris-buffered saline supplemented with 0.1% Tween 20 (Merck # S6996184 505) and 3% bovine serum albumin (Rockland # BSA-50).
Puromycin (12D10) (Merck # MABE343) and β-actin (Sigma Aldrich # A5441) antibodies were used as primary antibody. A HRP-conjugated secondary antibody (Rockland) was employed to detect immune-reactive bands using enhanced chemiluminescence (ECL Western Blotting Substrate, Pierce). Quantification of protein bands was done by densitometry using ImageJ software.
Percent increase of protein synthesis in unstressed cells (without Tg treatment) in the presence of media alone or certain test compounds is shown in Table 3. The percentage levels were normalized to the media alone condition, which correspond to 100% protein synthesis.
Percent recovery of protein synthesis in stressed cells (with Tg treatment) due to the test compounds at 1 μM is also shown in Table 3. The levels were normalized to the media alone and Tg alone conditions, which correspond to 100% and 0% respectively.

| IC50 (ATF4) | SMILES | activity at 1 µM [1] | % Recovery of protein synthesis (1 μM test compound) [1] |
| --- | --- | --- | --- |
| 14.1 nM | O=C(COc1ccc(Cl)c(F)c1)NCC1CCN(NC(=O)COc2ccc(Cl)c(F)c2)C1 (centres unmarked) [Compound 92, 2-(4-chloro-3-fluorophenoxy)-N-(3-((2-(4-chloro-3-fluorophenoxy)acetamido)methyl)pyrrolidin-1-yl)acetamide] | 93.6% | 45.8% |
| > 100 nM | O=C(COc1ccc(Cl)c(F)c1)NC1CCN(CCCOc2ccc(Cl)c(F)c2)C1 (centres unmarked) [Compound 100, 2-(4-chloro-3-fluorophenoxy)-N-(1-(3-(4-chloro-3-fluorophenoxy)propyl)pyrrolidin-3-yl)acetamide] | 69.1% | 0.00% |
| > 100 nM | O=C(COc1ccc(Cl)c(F)c1)NCC1CCC(NC(=O)COc2ccc(Cl)c(F)c2)C1 (centres unmarked) [Compound 84, 2-(4-chloro-3-fluorophenoxy)-N-((3-(2-(4-chloro-3-fluorophenoxy)acetamido)cyclopentyl)methyl)acetamide] | 80.3% | – |
| > 1000 nM | O=C(NC1CCN(CCCOc2ccc(Cl)c(F)c2)C1)c1ccc2cc(Cl)ccc2n1 (centres unmarked) [Compound 56, 6-chloro-N-(1-(3-(4-chloro-3-fluorophenoxy)propyl)pyrrolidin-3-yl)quinoline-2-carboxamide] | 100% | 32.73% |
